Where two headings read alike, the source gives them in different places.
What was measured:
various enzymes [1] = target: various enzymes (Homo sapiens, UniProt O14578); conditions: CIT; 1 uM
Protocol: (§1) Ambit profiling from Eurofins (formerly Discoverx) was conducted in accordance with the manufacturer's instructions.

various enzymes [2] = target: T1, various enzymes (Homo sapiens, UniProt O14757); conditions: CHEK1; 1 uM
T1 sequence (O14757 1-476): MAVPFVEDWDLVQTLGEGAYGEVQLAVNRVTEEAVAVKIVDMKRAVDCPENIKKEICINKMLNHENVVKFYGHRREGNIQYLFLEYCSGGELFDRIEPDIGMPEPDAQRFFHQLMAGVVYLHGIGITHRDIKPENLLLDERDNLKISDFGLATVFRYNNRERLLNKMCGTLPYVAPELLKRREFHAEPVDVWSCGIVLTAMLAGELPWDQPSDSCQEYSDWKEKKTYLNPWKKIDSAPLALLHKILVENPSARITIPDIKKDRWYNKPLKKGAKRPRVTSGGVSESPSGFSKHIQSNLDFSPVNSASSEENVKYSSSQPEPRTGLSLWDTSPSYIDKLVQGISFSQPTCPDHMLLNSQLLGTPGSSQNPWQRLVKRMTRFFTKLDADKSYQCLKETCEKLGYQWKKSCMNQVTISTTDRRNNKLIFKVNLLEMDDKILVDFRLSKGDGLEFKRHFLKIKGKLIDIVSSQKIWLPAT
Protocol: as §1

various enzymes [3] = target: T2, various enzymes (Homo sapiens, UniProt O60285); conditions: ARK5; 1 uM
T2 sequence (O60285 1-661): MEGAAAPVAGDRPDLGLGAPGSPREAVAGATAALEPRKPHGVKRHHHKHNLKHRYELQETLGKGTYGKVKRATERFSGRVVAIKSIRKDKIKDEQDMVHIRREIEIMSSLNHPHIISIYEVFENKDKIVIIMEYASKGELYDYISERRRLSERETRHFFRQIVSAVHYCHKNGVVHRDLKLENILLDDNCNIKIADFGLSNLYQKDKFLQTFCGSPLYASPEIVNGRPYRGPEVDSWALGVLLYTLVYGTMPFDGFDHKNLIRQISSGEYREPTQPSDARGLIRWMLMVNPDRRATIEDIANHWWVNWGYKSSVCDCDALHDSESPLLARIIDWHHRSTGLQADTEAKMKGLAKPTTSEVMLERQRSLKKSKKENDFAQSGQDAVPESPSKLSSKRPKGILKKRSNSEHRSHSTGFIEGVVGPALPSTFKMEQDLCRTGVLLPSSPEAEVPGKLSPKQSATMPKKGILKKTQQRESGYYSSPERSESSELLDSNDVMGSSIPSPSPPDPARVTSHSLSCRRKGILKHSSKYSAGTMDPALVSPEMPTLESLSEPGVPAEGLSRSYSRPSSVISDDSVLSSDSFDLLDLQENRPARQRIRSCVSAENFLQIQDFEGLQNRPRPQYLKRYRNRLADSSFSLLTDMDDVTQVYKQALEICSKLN
Protocol: as §1

various enzymes [4] = target: various enzymes (Homo sapiens, UniProt O60674); conditions: JAK2(JH1domain-catalytic); 1 uM
Chain of various enzymes (Homo sapiens, UniProt O60674) (O60674 whole entry): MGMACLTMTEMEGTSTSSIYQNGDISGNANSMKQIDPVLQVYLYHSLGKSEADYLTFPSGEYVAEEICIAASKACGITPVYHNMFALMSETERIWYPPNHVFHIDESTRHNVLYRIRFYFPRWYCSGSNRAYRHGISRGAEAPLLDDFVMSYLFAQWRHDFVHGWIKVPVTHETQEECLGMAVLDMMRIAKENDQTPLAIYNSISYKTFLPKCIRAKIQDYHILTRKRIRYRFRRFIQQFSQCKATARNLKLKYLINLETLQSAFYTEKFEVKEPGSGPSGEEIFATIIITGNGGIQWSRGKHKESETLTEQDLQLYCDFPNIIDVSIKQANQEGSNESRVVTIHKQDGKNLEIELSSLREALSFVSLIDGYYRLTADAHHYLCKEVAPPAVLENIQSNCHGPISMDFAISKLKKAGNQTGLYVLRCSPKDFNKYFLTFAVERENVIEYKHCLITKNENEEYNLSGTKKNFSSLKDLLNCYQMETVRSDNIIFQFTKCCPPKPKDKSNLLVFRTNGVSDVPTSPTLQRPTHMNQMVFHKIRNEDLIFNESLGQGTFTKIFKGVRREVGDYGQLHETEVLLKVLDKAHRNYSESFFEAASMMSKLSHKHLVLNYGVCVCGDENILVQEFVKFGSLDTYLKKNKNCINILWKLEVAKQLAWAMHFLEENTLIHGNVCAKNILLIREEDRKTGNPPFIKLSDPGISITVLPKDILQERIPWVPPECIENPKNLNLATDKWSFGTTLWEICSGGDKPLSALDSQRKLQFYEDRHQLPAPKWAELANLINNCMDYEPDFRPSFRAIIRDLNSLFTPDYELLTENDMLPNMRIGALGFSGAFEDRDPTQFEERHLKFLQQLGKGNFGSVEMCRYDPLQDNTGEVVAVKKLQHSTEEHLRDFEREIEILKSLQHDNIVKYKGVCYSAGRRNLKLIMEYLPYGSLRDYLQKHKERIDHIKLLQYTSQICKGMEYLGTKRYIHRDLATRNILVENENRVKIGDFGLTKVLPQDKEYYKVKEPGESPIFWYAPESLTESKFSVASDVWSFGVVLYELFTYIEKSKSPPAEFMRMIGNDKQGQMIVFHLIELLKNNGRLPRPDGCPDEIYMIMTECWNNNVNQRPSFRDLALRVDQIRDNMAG
Protocol: as §1

various enzymes [5] = target: various enzymes (Homo sapiens, UniProt P00533, DEL746-750); conditions: EGFR(E746-A750del); 1 uM
Protocol: as §1

various enzymes [6] = target: various enzymes (Homo sapiens, UniProt P00533, DEL747-752/P753S)
Protocol: as §1

various enzymes [7] = target: various enzymes (Homo sapiens, UniProt P00533, DEL752-759); conditions: EGFR(S752-I759del); 1 uM
Protocol: as §1

various enzymes [8] = target: various enzymes (Homo sapiens, UniProt P00533, L861Q)
Protocol: as §1

various enzymes [9] = target: various enzymes (Homo sapiens, UniProt P08581, Y1235D)
Protocol: as §1

various enzymes [10] = target: various enzymes (Homo sapiens, UniProt P29597); conditions: 1 uM
Chain of various enzymes (Homo sapiens, UniProt P29597) (P29597 whole entry): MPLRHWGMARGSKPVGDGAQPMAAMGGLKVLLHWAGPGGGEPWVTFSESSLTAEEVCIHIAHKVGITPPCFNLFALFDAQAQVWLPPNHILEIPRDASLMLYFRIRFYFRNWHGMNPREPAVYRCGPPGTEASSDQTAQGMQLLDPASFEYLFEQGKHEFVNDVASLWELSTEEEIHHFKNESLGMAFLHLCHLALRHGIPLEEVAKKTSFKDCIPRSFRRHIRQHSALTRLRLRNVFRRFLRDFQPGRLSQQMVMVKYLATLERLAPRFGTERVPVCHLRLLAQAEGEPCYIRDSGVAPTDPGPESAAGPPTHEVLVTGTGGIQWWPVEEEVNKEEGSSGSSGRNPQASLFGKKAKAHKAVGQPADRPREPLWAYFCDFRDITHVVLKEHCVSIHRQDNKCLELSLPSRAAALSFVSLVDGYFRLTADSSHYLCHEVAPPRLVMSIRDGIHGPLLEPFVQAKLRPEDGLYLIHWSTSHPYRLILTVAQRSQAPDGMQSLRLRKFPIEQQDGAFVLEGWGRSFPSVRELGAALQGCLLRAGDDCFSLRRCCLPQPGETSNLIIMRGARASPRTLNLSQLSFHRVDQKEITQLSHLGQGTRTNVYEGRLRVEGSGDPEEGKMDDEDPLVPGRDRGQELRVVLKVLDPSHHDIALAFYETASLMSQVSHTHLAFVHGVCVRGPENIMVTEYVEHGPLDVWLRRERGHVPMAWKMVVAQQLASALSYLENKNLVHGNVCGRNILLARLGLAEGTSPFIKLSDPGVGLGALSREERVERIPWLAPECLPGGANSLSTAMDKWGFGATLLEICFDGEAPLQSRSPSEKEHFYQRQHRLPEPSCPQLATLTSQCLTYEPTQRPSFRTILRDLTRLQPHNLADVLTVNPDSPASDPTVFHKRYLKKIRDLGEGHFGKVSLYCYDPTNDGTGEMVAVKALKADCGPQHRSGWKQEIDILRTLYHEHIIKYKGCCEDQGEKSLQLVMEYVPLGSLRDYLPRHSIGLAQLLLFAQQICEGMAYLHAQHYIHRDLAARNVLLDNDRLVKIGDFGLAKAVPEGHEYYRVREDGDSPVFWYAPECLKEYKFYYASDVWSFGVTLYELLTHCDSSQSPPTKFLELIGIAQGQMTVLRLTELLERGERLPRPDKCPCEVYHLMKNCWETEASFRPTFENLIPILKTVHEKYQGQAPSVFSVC
Protocol: as §1

various enzymes [11] = target: various enzymes (Homo sapiens, UniProt P45983); conditions: JNK1; 1 uM
Chain of various enzymes (Homo sapiens, UniProt P45983) (P45983 whole entry): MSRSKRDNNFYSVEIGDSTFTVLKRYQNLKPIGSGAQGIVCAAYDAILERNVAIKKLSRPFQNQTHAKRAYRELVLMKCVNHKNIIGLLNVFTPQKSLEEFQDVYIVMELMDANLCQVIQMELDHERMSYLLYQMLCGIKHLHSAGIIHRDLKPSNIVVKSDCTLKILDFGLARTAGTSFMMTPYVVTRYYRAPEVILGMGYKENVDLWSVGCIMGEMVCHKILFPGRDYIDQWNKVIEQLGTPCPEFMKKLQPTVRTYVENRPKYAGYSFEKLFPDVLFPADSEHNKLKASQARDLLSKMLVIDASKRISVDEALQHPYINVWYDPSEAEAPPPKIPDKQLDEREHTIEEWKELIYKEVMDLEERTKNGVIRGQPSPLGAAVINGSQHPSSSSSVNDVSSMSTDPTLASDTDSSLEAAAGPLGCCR
Protocol: as §1

various enzymes [12] = target: various enzymes (Homo sapiens, UniProt Q14004); conditions: CDC2L5; 1 uM
Protocol: as §1

various enzymes [13] = target: various enzymes (Homo sapiens, UniProt Q16539); conditions: p38-alpha; 1 uM
Chain of various enzymes (Homo sapiens, UniProt Q16539) (Q16539 whole entry): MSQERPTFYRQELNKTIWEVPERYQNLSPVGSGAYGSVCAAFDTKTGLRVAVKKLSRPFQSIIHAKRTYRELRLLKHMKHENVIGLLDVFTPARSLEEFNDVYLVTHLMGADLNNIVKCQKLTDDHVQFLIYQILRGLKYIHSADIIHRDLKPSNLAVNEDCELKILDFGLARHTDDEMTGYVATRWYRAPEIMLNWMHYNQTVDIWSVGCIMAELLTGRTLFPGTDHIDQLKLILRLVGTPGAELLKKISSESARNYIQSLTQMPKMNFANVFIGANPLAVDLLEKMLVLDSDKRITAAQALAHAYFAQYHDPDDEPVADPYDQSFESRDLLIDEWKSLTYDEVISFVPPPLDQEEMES
Protocol: as §1

various enzymes [14] = target: various enzymes (Homo sapiens, UniProt Q16584); conditions: MLK3; 1 uM
Chain of various enzymes (Homo sapiens, UniProt Q16584) (Q16584 whole entry): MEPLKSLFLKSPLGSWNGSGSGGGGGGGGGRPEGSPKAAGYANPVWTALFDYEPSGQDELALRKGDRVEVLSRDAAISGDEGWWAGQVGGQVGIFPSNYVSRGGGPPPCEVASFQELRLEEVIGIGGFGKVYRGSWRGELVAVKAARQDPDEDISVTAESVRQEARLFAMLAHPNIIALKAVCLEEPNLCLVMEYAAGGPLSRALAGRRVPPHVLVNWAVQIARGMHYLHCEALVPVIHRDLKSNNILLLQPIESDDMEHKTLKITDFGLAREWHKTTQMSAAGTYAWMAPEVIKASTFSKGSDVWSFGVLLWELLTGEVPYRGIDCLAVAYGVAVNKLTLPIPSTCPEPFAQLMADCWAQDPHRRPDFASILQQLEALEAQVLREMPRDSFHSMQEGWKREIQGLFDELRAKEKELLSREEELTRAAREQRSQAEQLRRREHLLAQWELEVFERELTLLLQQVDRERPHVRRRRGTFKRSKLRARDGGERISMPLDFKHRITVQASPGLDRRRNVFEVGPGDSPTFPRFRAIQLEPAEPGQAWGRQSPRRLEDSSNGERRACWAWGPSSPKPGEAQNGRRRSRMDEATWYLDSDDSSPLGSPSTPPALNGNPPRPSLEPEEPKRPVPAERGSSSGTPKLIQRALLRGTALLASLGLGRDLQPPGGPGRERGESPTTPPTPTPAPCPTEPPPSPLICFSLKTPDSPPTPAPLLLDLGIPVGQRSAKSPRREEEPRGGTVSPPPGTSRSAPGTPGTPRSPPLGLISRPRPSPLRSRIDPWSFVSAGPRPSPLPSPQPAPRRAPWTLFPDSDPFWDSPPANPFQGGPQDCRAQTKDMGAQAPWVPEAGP
Protocol: as §1

various enzymes [15] = target: various enzymes (Homo sapiens, UniProt Q9HCP0); conditions: CSNK1G1; 1 uM
Protocol: as §1

various enzymes [16] = target: T3, various enzymes (Homo sapiens, UniProt Q9NWZ3); conditions: IRAK4; 1 uM
T3 sequence (Q9NWZ3 1-460): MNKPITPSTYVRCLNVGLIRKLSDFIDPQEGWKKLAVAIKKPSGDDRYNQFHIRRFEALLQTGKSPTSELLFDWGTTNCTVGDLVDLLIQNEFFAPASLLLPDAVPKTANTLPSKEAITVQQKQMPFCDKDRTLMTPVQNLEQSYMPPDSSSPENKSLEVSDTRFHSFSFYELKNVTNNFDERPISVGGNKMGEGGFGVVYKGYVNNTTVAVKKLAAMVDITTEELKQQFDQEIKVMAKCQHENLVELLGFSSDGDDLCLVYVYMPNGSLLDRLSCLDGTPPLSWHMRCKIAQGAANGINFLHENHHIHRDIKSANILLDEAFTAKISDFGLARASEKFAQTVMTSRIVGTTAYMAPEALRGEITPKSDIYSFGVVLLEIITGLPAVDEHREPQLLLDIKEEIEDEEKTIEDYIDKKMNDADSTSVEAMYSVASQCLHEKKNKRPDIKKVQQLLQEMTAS
Protocol: as §1

various enzymes [17] = target: various enzymes (Homo sapiens, UniProt Q9UK32); conditions: 1 uM
Chain of various enzymes (Homo sapiens, UniProt Q9UK32) (Q9UK32 whole entry): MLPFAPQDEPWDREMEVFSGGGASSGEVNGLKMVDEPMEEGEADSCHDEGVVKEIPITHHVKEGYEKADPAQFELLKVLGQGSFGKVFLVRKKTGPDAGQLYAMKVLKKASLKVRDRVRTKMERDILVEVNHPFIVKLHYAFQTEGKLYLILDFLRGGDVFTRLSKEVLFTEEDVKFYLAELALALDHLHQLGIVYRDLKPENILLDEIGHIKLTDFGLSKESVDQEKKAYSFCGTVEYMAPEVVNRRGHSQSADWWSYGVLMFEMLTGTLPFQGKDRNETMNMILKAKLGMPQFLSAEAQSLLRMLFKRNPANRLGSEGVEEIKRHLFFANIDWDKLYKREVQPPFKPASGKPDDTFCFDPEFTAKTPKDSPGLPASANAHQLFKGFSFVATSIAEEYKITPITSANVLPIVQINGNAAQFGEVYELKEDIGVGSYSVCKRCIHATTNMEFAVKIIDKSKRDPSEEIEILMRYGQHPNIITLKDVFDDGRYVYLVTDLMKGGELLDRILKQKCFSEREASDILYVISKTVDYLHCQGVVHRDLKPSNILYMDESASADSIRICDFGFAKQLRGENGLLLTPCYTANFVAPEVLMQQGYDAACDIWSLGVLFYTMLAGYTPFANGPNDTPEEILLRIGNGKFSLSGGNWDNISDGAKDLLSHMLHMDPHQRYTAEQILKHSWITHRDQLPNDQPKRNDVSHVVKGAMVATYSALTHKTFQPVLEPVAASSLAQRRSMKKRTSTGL
Protocol: as §1

SMILES	Ambit profiling (various enzymes [1])	Ambit profiling (various enzymes [2])	Ambit profiling (various enzymes [3])	Ambit profiling (various enzymes [4])	Ambit profiling (various enzymes [5])	Ambit profiling (various enzymes [7])	Ambit profiling (various enzymes [10]; TYK2(JH1domain-catalytic))	Ambit profiling (various enzymes [10]; TYK2(JH2domain-pseudokinase))	Ambit profiling (various enzymes [11])	Ambit profiling (various enzymes [12])	Ambit profiling (various enzymes [13])	Ambit profiling (various enzymes [14])	Ambit profiling (various enzymes [15])	Ambit profiling (various enzymes [16])	Ambit profiling (various enzymes [17]; RSK4(Kin.Dom.1-N-terminal))	Ambit profiling (various enzymes [17]; RSK4(Kin.Dom.2-C-terminal))	also measured
CN1Cc2nn(C)c(C#N)c2-c2cnc3[nH]cc(c3c2)-c2cn(nc2C(F)(F)F)CCCC1=O [Compound 48, (Z)-31,5-dimethyl-6-oxo-13-(trifluoromethyl)-11H,21H,31H-5-aza-2(3,5)-pyrrolo[2,3-b]pyridina-1(4,1),3(4,3)-dipyrazolacyclononaphane-35-carbonitrile]	74	93	100	81	35	77	84	100	20	87	95	80	100	100	7.5	69	Ambit profiling (various enzymes [6]): 74; Ambit profiling (various enzymes [8]): 59; Ambit profiling (various enzymes [9]): 51
CN1Cc2nn(C)cc2-c2cnc3[nH]cc(c3c2)-c2cnn(c2)CCCC1=O [Compound 41, (Z)-31,5-dimethyl-11H,21H,31H-5-aza-2(3,5)-pyrrolo[2,3-b]pyridina-1(4,1),3(4,3)-dipyrazolacyclononaphan-6-one]	99	100	8.9	0.5	100	100	2.3	100	0.1	100	99	69	84	12	5.6	63	Ambit profiling (various enzymes [6]; EGFR(L747-S752del, P753S), 1 uM): 100; Ambit profiling (various enzymes [8]; EGFR(L861Q), 1 uM): 100; Ambit profiling (various enzymes [9]; MET(Y12350), 1 uM): 44

Reference: patent US12157741B2, “Macrocyclic inhibitors of DYRK1A” (DANA-FARBER CANCER INSTITUTE, INC., priority 2018, dated 2024)
